# Measurements as given in patent US10604512B2, “3-(1H-indol-2-yl)-1H-indazoles and therapeutic uses thereof” (Samumed, LLC, priority 2015, dated 2020).
# Test system: primary human mesenchymal stem cells (hMSCs)
# Assay: Induction of chondrogenesis in primary human mesenchymal stem cells (nodule imaging, Rhodamine B / Nile Red)
# Format: cell-based
# Settings: for EC50: concentration required to induce 50% levels of chondrogenesis vs TGF-β3 positive control, read-out: Conc (nM) of 50% TGF-β3 activity; for Emax: maximum chondrogenesis activity relative to TGF-β3 (10 ng/mL) positive control, read-out: Max. Activity as % TGF-β3 activity
# Procedure: Representative compounds were screened using primary human mesenchymal stem cells (hMSCs) to determine their ability to induce chondrogenesis (process by which cartilage is developed).
# Primary human mesenchymal stem cells (hMSCs) were purchased from Lonza (Walkersville, Md.) and expanded in Mesenchymal Stem Cell Growth Media (Lonza). Cells between passage 3 and 6 were used for the experiments.
# Each compound was dissolved in DMSO as a 10 mM stock and used to prepare compound source plates. For the 96 well assay, serial dilution (1:3, 6-point dose-response curves from 2700 nM to 10 nM) and compound transfer was performed using the ECHO 550 (Labcyte, Sunnyvale, Calif.) into 96-well clear bottom assay plates (Greiner Bio-One) with appropriate DMSO backfill for a final DMSO concentration of 0.03%. hMSCs were plated at 20,000 cells/well in 250 μL/well Incomplete Chondrogenic Induction Medium (Lonza; DMEM, dexamethasone, ascorbate, insulin-transferrin-selenium [ITS supplement], gentamycin-amphotericin [GA-1000], sodium pyruvate, proline and L-glutamine). TGF-β3 (10 ng/mL) was used as a positive control for differentiation while negative control wells were treated with 75 nL DMSO for normalization and calculating EC50 values. For the 384 well assay, serial dilution (1:3, 8-point dose-response curves from 5000 nM to 2.2 nM) and compound transfer was performed using the ECHO 550 (Labcyte, Sunnyvale, Calif.) into 384-well clear bottom assay plates (Greiner Bio-One) with appropriate DMSO backfill for a final DMSO concentration of 0.03%. hMSCs were plated at 8,000 cells/well in 80 μL/well Incomplete Chondrogenic Induction Medium (Lonza; DMEM, dexamethasone, ascorbate, insulin-transferrin-selenium [ITS supplement], gentamycin-amphotericin [GA-1000], sodium pyruvate, proline and L-glutamine). TGF-β3 (10 ng/mL) was used as a positive control for differentiation while negative control wells were treated with 25 nL DMSO for normalization and calculating EC50 values. Cells were incubated at 37° C. and 5% CO2 for 6 days. To image chondrogenic nodules, the cells were fixed using 4% formaldehyde (Electron Microscopy Sciences), and stained with 2 μg/mL Rhodamine B (Sigma-Aldrich) and 20 μM Nile Red (Sigma-Aldrich) [Johnson K., et. al, A Stem CellBased Approach to Cartilage Repair, Science, (2012), 336(6082), 717-721]. The nodules imaged (25 images per well for 96 well plates and 9 images per well for 384 well plates at 10× magnification) by excitation at 531 nm and emission at 625 nm and quantified using the CellInsight CX5 (Thermo Scientific). Area of nodules in each well was normalized to the average of 3 DMSO treated wells on the same plate using Excel (Microsoft Inc.). The normalized averages (fold change over DMSO) of 2 or 3 replicate wells for each compound concentration were calculated. Due to solubility limitations of some of the compounds, curve fitting was incomplete leading to inaccurate EC50 determinations.
# Using TGF-β3 as a positive control, the concentration of representative compounds required to induce 50% levels of chondrogenesis is reported. In addition, the maximum activity of each compound and the respective dose that each compound reached maximum chondrogenesis activity is reported.
EC50 [nM],SMILES,Emax [%]
10,"CS(=O)(=O)NCc1cc(F)cc(-c2cccc3[nH]c(-c4n[nH]c5ccc(-c6cncnc6)cc45)cc23)c1 [Compound 503, N-(3-Fluoro-5-(2-(5-(pyrimidin-5-yl)-1H-indazol-3-yl)-1H-indol-4-yl)benzyl) methanesulfonamide]",194
10,"c1ccc2[nH]c(-c3n[nH]c4ccc(-c5cncc(OCCN6CCCC6)c5)cc34)cc2c1 [Compound 686, 3-(1H-Indol-2-yl)-5-(5-(2-(pyrrolidin-1-yl)ethoxy)pyridin-3-yl)-1H-indazole]",213
